The values that follow come from ChEMBL document CHEMBL4665685, “Neuroprotective Effects of Triterpenoids from Camellia japonica against Amyloid β-Induced Neuronal Damage” (J Nat Prod, 2020).

For data set [1], the system named is HT-22. Description: Neuroprotective activity against glutamate-induced cell death in mouse HT22 cells assessed as increase in cell viability at 40 uM preincubated for 6 hrs followed by glutamate-challenge and measured after 16 hrs by MTT assay relative to control. The class given is functional.
The subject of data set [2] is HT-22. Description: Neuroprotective activity against amyloid beta (1 to 42) transfected mouse HT22-ARE cells assessed as reversal of increase in antioxidant response element-luciferase activity at 40 uM after 18 hrs by reporter gene assay. The class given is functional, cell-based.
Data set [3] relates to HT-22. The experiment in a line: Neuroprotective activity against in amyloid beta (1 to 42) transfected mouse HT22 cells assessed as reduction in overexpression of the green fluorescent pEGFP-C1 gene at 40 uM after 24 hrs by reporter gene assay. The class given is functional, cell-based. (Reporter assays use an easily measured gene product as a stand-in for the process of interest.)

For data set [4], the target named is Beta-secretase 1 (Homo sapiens) (UniProt P56817). The experiment in a line: Inhibition of BACE1 (unknown origin) at 20 uM measured after 60 mins by FRET assay relative to control.
Data set [5] has as its system BV-2. The experiment in a line: Cytotoxicity against mouse BV2 cells assessed as reduction in cell viability at 40 uM after 18 hrs by MTT assay. The class given is cell-based. To be noted: bv-2, 18 h.
The target in data set [6] is Beta-secretase 1 (Homo sapiens) (UniProt P56817). Description: Inhibition of BACE1 (unknown origin) at 10 uM measured after 60 mins by FRET assay.
In data set [7] the test system is HT-22. Description: Neuroprotective activity against amyloid beta (1 to 42) transfected mouse HT-22 cells assessed as protection against amyloid-induced inflammation at 40 uM after 24 hrs by MTT assay. The class given is functional, cell-based.
In data set [8] the test system is BV-2. The experiment in a line: Anti-neuroinflammatory activity in mouse BV-2 cells assessed as reduction in amyloid beta (1 to 42 residues)-induced nitric oxide at 40 uM after 18 hrs. The class given is functional, cell-based.
In data set [9] the test system is HT-22. Description: Neuroprotective activity in mouse HT-22 cells assessed as reduction in amyloid beta (1 to 42 residues)-induced glutamate level at 40 uM after 24 hrs by fluorescence assay (reference value: 3.17). The class given is functional.
For data set [10], the system named is HT-22. The experiment in a line: Cytotoxicity against mouse HT-22 cells assessed as reduction in cell viability at 40 uM after 24 hrs by MTT assay. The class given is cell-based. The settings on record: ht-22, 24 h. For orientation: Formazan colour is commonly taken as a measure of viable cells.

What is called inhibition is the relative decrease from the control value, in per cent.

Structures are written as SMILES. Active and inactive are the calls of the source. The calls are words filed in the database; no cut-off is given here.

Chain of Beta-secretase 1 (Homo sapiens) (P56817 whole entry): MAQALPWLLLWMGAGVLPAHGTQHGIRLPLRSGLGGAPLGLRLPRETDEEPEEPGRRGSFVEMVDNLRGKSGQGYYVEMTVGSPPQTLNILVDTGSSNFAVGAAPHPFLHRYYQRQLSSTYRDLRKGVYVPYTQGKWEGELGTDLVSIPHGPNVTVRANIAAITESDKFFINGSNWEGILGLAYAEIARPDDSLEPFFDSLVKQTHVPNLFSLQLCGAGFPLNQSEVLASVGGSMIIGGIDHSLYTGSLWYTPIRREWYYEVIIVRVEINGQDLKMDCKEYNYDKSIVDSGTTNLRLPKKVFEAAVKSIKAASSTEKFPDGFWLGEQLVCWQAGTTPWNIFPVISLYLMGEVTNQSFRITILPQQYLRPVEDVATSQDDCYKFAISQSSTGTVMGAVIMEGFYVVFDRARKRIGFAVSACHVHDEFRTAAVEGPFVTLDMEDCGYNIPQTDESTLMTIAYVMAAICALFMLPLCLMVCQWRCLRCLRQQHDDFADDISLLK

As for `CO[C@@H]1C=C2[C@@H]3CC(C)(C)CC[C@]3(O)C(=O)C[C@@]2(C)[C@]2(C)CC[C@H]3C(C)(C)C(=O)C[C@@H](O)[C@]3(C)[C@@H]12`, the Activity in the data set on HT-22 [1] is listed as 77%; in the data set with BV-2 [5], “Non-Toxic”; in the data set on HT-22 [10] it was “Non-Toxic”. The outcome in the data set on HT-22 [2], with HT-22 [3], in the data set on HT-22 [7] and in the data set with BV-2 [8] was Active. This molecule also registered an inhibition in [4] of 51.9%. Further, the inhibition result in data set [6] was “Active”. In the data set on HT-22 [9], the “fold change (FC)” value was found to be 1.61.
